The conditions of series [1]: in water under ambient conditions; cited from earlier work.
Series [2] is described as follows: ozone release, first test: water added to powder in closed reactor, ozone detector. The series is classed as physicochemical. Conditions: same conditions, after adding water. How it is done: In the first test, about 1.5 g of ozone storage material in powder form have been placed in a glass cup, which in turn has been placed in a glass reactor of volume 1.4 litres. The reactor can be hermetically closed and has been maintained at ambient temperature (˜20° C.).
A portable ozone detector (model X-an-5000 from Dräger, equipped with an XXS O3 cell specifically for ozone detection, detection limit equal to 0.02 ppm and resolution equal to 0.01 ppm, response time <10 s at 20° C.) has been introduced into the reactor and switched on near the powder cup. The detector thus placed makes it possible to continuously emphasise the presence of ozone in the reactor, from an ozone concentration higher than the detection limit of 0.02 ppm.
Secondly, using a graduated glass pipette, a volume of approximately 3 ml of distilled water has been introduced onto the powder through one of the upper openings of the reactor. The reactor has then been immediately hermetically closed again to monitor the course of the vapour phase composition of the reactor with the detector over time. The dissolution of part of the material (about ⅓ of the initial amount) by this addition of water (as the material is relatively soluble in water), caused a rapid increase in the ozone concentration over time as read on the detector (for example 0.1 ppm measured in 40 s; 0.2 ppm in 100 s). […]

Turning to `O=[O+][O-]` [ozone], the lifetime result in series [1] was “about 20 minutes”.

Consider “(2-hydroxypropyl)-β-cyclodextrin [native HP-β-CD]”, for which the “ozone release on the detector” value in series [2] is given as “no ozone release was observed”.

Values taken from patent US12434967B2, “Method for preparing a solid material for storing ozone, the material and the uses thereof” (priority 2019, dated 2025).
